The subject of one data set is P. falciparum K1 strain. Briefly: P. falciparum growth inhibition (K1 strain). The format is cell-based. To be noted: Plasmodium falciparum, read-out: IC50 in K1 strain (μM) ± SEM.
Data set [1] relates to Plasmodium berghei CTRP-GFP. Nature of the data set: Gametocyte to ookinete transition inhibition. Format: cell-based. The settings on record: up to a concentration of 2 μM. As to the method:
Eight days before ookinete production, 200 μL of Plasmodium berghei CTRP-GFP (which expresses GFP when reaching ookinete stage) (Vlachou, D. et al., 2004) in cryopreservation solution (RBC pellet:RPMI:30% glycerol in water, 1:1:2) was administered i.p. to a BALB/c mouse. Four days later this mouse was the donor to infect i.p. with 5×10^7 parasitized red blood cells in 200 μL of PBS three mice that one hour before the infection had been pretreated i.p. with phenylhydrazine (120 μL of a 10 mg/mL solution in PBS).
For ookinete production, up to 1 mL of blood carrying gametocytes was collected from each animal by intracardiac puncture and diluted in 30 mL of ookinete medium: 10.4 g/L of RPMI supplemented with […], 0.05% w/v hypoxanthine, 0.02% w/v xanthurenic acid, 50 U/mL penicillin and 50 μg/mL streptomycin (Invitrogen), 20% heat-inactivated fetal bovine serum (FBS, Invitrogen), 25 mM HEPES, pH 7.4.
24 h later, samples were diluted 1:100 in PBS and analyzed in a LSRFortessa™ flow cytometer (BD Biosciences) set up with the 5 lasers, 20 parameters standard configuration. The GFP positive cell population was selected and counted using 488 nm laser excitation and a 525/40 nm emission collection filter. BD FACSDiva software (BD biosciences) was used in data collection, and Flowing Software 2.5.1 (Turku Centre for Biotechnology) was used for analysis.

Data set [2] is described as follows: In vivo toxicity assay in mice. To be noted: male mice. Also noted: species or system BALB/c mice. As to the method:
BALB/c female and male mice (Janvier Laboratories) were maintained with unlimited access to food and water under standard environmental conditions (20-24° C. and 12/12 h light/dark cycle). […] First, the lowest dose was intravenously injected to one female and one male mice. An oxygen stream of 4% isoflurane was used to anesthetize the mice, which were then maintained during the whole procedure (less than 3 minutes) with 2.5% isoflurane.
After the administration, mice were observed and different parameters related to their behavior (lethargy, motility alterations, seizures, coma, automutilation, aggressiveness, vocalizations, stereotyped movements) and physical conditions (pain, respiratory disturbances, tachycardia or bradycardia, dehydration, hair loss, body weight loss, dermatitis, bad hygiene, pruritus, tearing) were followed. If after 48 h no deleterious effects were observed, the following dose was administered to two other male and female mice.

The subject of data set [3] is P. falciparum NF54-gexp02-Tom strain gametocytes. Briefly: microbe, parasite or virus in culture. Format: cell-based. The settings on record: Plasmodium falciparum, NF54, 48 h, read-out: IC50 on early gametocytes. As to the method:
Cultures of the P. falciparum NF54-gexp02-Tom strain (developed and authenticated by Portugaliza, H. P. et al., 2019 and kindly provided by Prof. Alfred Cortes), were maintained in standard conditions in RPMI medium supplemented with 0.5% Albumax II and 2 mM choline, synchronized in ring stages with sorbitol lysis, and diluted to 2% parasitemia. To trigger sexual conversion, choline was removed from the medium and cultures were maintained in the same conditions for 48 h after synchronization (cycle 0). In the next cycle (cycle 1), parasites were treated with 50 mM N-acetylglucosamine (GlcNac) in order to kill asexual parasites, and maintained in RPMI supplemented with 10% human serum. Medium was refreshed daily and GlcNac was kept during 4 days.
Controls of untreated parasites as well as of parasites treated with a lethal dose of chloroquine were prepared. Gametocytemia was monitored daily by light microscopy until the majority of parasites (˜90%) could be identified as stage V gametocytes. At that point, Giemsa smears of each well were prepared and mature gametocytes were manually counted (10,000 cells were counted for each replica by two investigators blinded to group assignment). […] Afterwards, the culture was treated for 48 h with the drugs and the gametocytemia determined as above.

Entries after “also recorded” stand apart in the source; their conditions may differ.

For the compound `COc1cc2c(cc1OC)C(=O)C(CC1CCN(CNc3c4c(nc5cc(Cl)ccc35)CCCC4)CC1)C2` (stereo not shown) [DONE3TCI], the results for the 50% inhibitory concentration (IC50) (in the data set on P. falciparum K1 strain; in data set [3]) were 0.36 ± 0.07 µM and 285 ± 56 nM, respectively. Also, the “effect on ookinete development” value in data set [1] is “did not have an observable effect; also recorded: does not show any observable effect”. Also, the “dose at which toxicity starts being observed” value in data set [2] is on record as 3 mg/kg.

Broadly, the IC50 is the midpoint of a concentration-inhibition curve.

For the origin of these results see patent publication US20240415825A1, “COMPOUNDS FOR THE TREATMENT OF MALARIA” (FUNDACIÓ INSTITUT DE BIOENGINYERIA DE CATALUNYA, priority 2021, published 2024).
